Reference: patent US10981926B2 (Janssen Pharmaceutica NV, priority 2016, dated 2021)

Assays:
Type in all cases: cell-based
[1] = molecular target: T1, F876L mutant Androgen Receptor (AR-F876L) (Homo sapiens (Human), UniProt P10275, F877L); assay: LNCaP-AR-F876L ANT reporter assay (antagonist mode); settings: for Emax: read-out: LNCaP-AR-F876L ANT MAX % Inh; for IC50: read-out: LNCaP-AR-F876L ANT pIC50 (converted)
[2] = molecular target: T2, wild-type Androgen Receptor (AR-wt) (Homo sapiens (Human), UniProt P10275); assay: LNCaP-AR-wt AG reporter assay (agonist mode); settings: for Emax: read-out: LNCaP-AR-wt AG MAX % Stim; for EC50: read-out: LNCaP-AR-wt AG pEC50 (converted)
T2 sequence (P10275 whole entry): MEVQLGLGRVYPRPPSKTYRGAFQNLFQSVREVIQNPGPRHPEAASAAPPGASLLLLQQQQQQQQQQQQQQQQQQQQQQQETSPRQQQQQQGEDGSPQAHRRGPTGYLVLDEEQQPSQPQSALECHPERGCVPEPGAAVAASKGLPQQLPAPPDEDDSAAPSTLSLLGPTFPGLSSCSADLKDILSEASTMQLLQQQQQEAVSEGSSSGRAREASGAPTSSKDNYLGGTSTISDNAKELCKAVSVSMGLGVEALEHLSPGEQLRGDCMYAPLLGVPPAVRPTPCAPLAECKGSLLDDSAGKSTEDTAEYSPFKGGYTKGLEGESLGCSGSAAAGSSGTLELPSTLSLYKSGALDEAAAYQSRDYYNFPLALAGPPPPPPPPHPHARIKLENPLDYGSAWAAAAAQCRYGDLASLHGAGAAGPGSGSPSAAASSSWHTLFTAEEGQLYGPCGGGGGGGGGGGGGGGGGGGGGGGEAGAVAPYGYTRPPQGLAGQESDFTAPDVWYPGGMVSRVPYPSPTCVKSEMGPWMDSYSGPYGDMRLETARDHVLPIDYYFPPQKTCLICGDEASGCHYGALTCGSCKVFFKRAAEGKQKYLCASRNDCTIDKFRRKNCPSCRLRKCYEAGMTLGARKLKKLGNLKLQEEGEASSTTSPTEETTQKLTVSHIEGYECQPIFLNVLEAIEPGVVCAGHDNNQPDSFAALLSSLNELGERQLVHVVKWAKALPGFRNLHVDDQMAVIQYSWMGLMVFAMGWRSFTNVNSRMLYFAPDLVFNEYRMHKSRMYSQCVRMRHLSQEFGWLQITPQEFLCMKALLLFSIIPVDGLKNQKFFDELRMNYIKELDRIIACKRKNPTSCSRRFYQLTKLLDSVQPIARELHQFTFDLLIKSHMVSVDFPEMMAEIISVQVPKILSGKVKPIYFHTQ

[3] = molecular target: T2, wild-type Androgen Receptor (AR-wt); assay: LNCaP-AR-wt ANT reporter assay (antagonist mode); settings: for Emax: read-out: LNCaP-AR-wt ANT MAX % Inh; for IC50: read-out: LNCaP-AR-wt ANT pIC50 (converted)
[4] = molecular target: T1, F876L mutant Androgen Receptor (AR-F876L); assay: LNCaP-AR-F876L AG reporter assay (agonist mode); settings: for Emax: read-out: LNCaP-AR-F876L AG MAX % Stim; for EC50: read-out: LNCaP-AR-F876L AG pEC50 (converted)
[5] = antagonist mode, maximum % inhibition of R1881 control response over tested concentration range
[6] = antagonist mode, pIC50 = −Log10(IC50 in Molar)
[7] = agonist mode, maximum % stimulation over tested concentration range
[8] = agonist mode, pEC50 = −Log10(EC50 in Molar)
[9] = maximum % inhibition of R1881 control response over the tested concentration range
[10] = maximum % stimulation (agonist response) over the tested concentration range

T1 sequence (P10275 whole entry F877L): as the sequence (P10275 whole entry) above, with F877L counted along it

Row | Compound | Emax [1, 5] [%] | IC50 [1, 6] [nM] | Emax [2, 7] [%] | EC50 [2, 8] [µM] | Emax [3, 5] [%] | IC50 [3, 6] [nM] | Emax [4, 7] [%] | EC50 [4, 8] [µM] | Emax [1, 9] [%] | Emax [2, 10] [%] | Emax [3, 9] [%] | Emax [4, 10] [%] | LNCaP-AR-F876L ANT pIC50 [1, 6] | LNCaP-AR-wt AG pEC50 [2, 8] | LNCaP-AR-wt ANT pIC50 [3, 6] | LNCaP-AR-F876L AG pEC50 [4, 8]
1 | N#Cc1ncc(N2C(=O)C3(CCC3)N(c3ccc(OC4CCNC5(CCC5)C4)nc3)C2=S)cc1C(F)(F)F (racemic) [Cpd 188, (R,S)-5-[8-[6-(9-azaspiro[3.5]nonan-6-yloxy)-3-pyridyl]-5-oxo-7-thioxo-6,8-diazaspiro[3.4]octan-6-yl]-3-(trifluoromethyl)pyridine-2-carbonitrile] | 104 | 170 | -0.2 | > 15.1 | 104 | 219 | 0.3 | > 15.1 |  |  |  |  |  |  |  | 
2 | Cc1cc(N2C(=O)C3(CCC3)N(c3ccc(CC4CCNCC4)cc3)C2=S)cnc1C#N [Cpd 235, 3-methyl-5-[5-oxo-8-[4-(4-piperidylmethyl)phenyl]-7-thioxo-6,8-diazaspiro[3 4]octan-6-yl]pyridine-2-carbonitrile] | 101 | 562 | 0.2 | > 15.1 | 101 | 1070 | 0.1 | > 15.1 |  |  |  |  |  |  |  | 
3 | N#Cc1ncc(N2C(=O)C3(CCC3)N(c3ccc(OC4CCNC5(CCC5)C4)cc3)C2=S)cc1C(F)(F)F (racemic) [Cpd 151, (R,S)-5-[8-[4-(9-azaspiro[3.5]nonan-6-yloxy)phenyl]-5-oxo-7-thioxo-6,8-diazaspiro[3.4]octan-6-yl]-3-(trifluoromethyl)pyridine-2-carbonitrile] |  | 145 |  | > 15.1 |  | 234 |  | > 15.1 | 104 | 0 | 106 | -0.1 |  |  |  | 
4 | CC(C)(C)OC(=O)N1CCN(Cc2ccc(N3C(=S)N(c4cnc(C#N)c(C(F)(F)F)c4)C(=O)C34CCC4)cc2)CC1 [Cpd 47, tert-butyl 4-[[4-[6-[6-cyano-5-(trifluoromethyl)-3-pyridyl]-5-oxo-7-thioxo-6,8-diazaspiro[3.4]octan-8-yl]phenyl]methyl]piperazine-1-carboxylate] |  | 145 |  | > 15.1 |  | 316 |  | > 15.1 | 100 | 0.7 | 100 | 0.5 |  |  |  | 
5 | CC(C)(C)OC(=O)N1CCC12CC(Oc1ccc(N3C(=S)N(c4cnc(C#N)c(C(F)(F)F)c4)C(=O)C34CCC4)cn1)C2 (centres unmarked) [Cpd 153, tert-butyl 6-[[5-[6-[6-cyano-5-(trifluoromethyl)-3-pyridyl]-5-oxo-7-thioxo-6,8-diazaspiro[3.4]octan-8-yl]-2-pyridyl]oxy]-3-azaspiro[3.3]heptane-3-carboxylate] |  | 339 |  | > 15.1 |  | 398 |  | > 15.1 | 100 | 0.1 | 101 | -0.1 |  |  |  | 
6 | CN1CCC(CN(C)C(=O)c2ccc(N3C(=S)N(c4cnc(C#N)c(C(F)(F)F)c4)C(=O)C34CCC4)cc2)CC1 [Cpd 209, 4-[6-[6-cyano-5-(trifluoromethyl)-3-pyridyl]-5-oxo-7-thioxo-6,8-diazaspiro[3.4]octan-8-yl]-N-methyl-N-[(1-methyl-4-piperidyl)methyl]benzamide] | 100 | 417 | -0.1 | > 15.1 | 99 | 457 | 0 | > 15.1 |  |  |  |  |  |  |  | 
7 | N#Cc1ncc(N2C(=O)C3(CCC3)N(c3ccc(C4=CC5CCC(C4)N5)cc3)C2=S)cc1C(F)(F)F (centres unmarked) [Cpd 116, 5-[8-[4-(8-azabicyclo[3.2.1]oct-3-en-3-yl)phenyl]-5-oxo-7-thioxo-6,8-diazaspiro[3.4]octan-6-yl]-3-(trifluoromethyl)pyridine-2-carbonitrile] |  |  |  |  |  |  |  |  | 102 | 0.5 | 102 | 0.8 | 6.01 | <4.82 | 5.96 | <4.82
8 | Cc1cc(N2C(=O)C3(CCC3)N(c3ccc(N4CCNC4=O)cc3)C2=S)cnc1C#N [Cpd 9, 3-Methyl-5-{5-oxo-8-[4-(2-oxoimidazolidinyl)phenyl]-7-thioxo-6,8-diazaspiro[3.4]oct-6-yl}pyridine-2-carbonitrile] |  | 575 |  | > 15.1 |  | 1200 |  | > 15.1 | 98.4 | 0.1 | 94.2 | 0.5 |  |  |  | 
9 | CN1CCC[C@H](CNC(=O)c2ccc(N3C(=S)N(c4cnc(C#N)c(C(F)(F)F)c4)C(=O)C34CCC4)cc2)C1 [Cpd 184, 4-[6-[6-cyano-5-(trifluoromethyl)-3-pyridyl]-5-oxo-7-thioxo-6,8-diazaspiro[3.4]octan-8-yl]-N-[[(3R)-1-methyl-3-piperidyl]methyl]benzamide] |  | 447 |  | > 15.1 |  | 813 |  | > 15.1 | 99.6 | 0.2 | 100 | 0.4 |  |  |  | 
10 | CN1CC(CCOc2ccc(N3C(=S)N(c4cnc(C#N)c(C(F)(F)F)c4)C(=O)C34CCC4)cc2)C1 [Cpd 142, 5-[8-[4-[2-(1-methylazetidin-3-yl)ethoxy]phenyl]-5-oxo-7-thioxo-6,8-diazaspiro[3.4]octan-6-yl]-3-(trifluoromethyl)pyridine-2-carbonitrile] |  | 117 |  | > 15.1 |  | 112 |  | > 15.1 | 99 | -0.2 | 101 | 0.8 |  |  |  | 
11 | N#Cc1ncc(N2C(=O)C3(CCC3)N(c3ccc(CN4CCC(N)CC4)cc3)C2=S)cc1C(F)(F)F [Cpd 224, 5-[8-[4-[(4-amino-1-piperidyl)methyl]phenyl]-5-oxo-7-thioxo-6,8-diazaspiro[3.4]octan-6-yl]-3-(trifluoromethyl)pyridine-2-carbonitrile] | 100 | 1480 | 0 | > 15.1 | 101 | 1780 | 0.1 | > 15.1 |  |  |  |  |  |  |  | 
12 | CN1CC[C@@H](Oc2ccc(N3C(=S)N(c4cnc(C#N)c(C(F)(F)F)c4)C(=O)C34CCC4)cc2)C1 [Cpd 16, 5-[8-[4-[(3R)-1-methylpyrrolidin-3-yl]oxyphenyl]-5-oxo-7-thioxo-6,8-diazaspiro[3.4]octan-6-yl]-3-(trifluoromethyl)pyridine-2-carbonitrile] |  | 363 |  | > 15.1 |  | 1120 |  | > 15.1 | 97.5 | 0.5 | 98.8 | 0.8 |  |  |  | 
13 | CN(C)C1(COc2ccc(N3C(=S)N(c4cnc(C#N)c(C(F)(F)F)c4)C(=O)C34CCC4)cc2)COC1 [Cpd 208, 5-[8-[4-[[3-(dimethylamino)oxetan-3-yl]methoxy]phenyl]-5-oxo-7-thioxo-6,8-diazaspiro[3.4]octan-6-yl]-3-(trifluoromethyl)pyridine-2-carbonitrile] | 101 | 1020 | 0 | > 15.1 | 103 | 871 | 0 | > 15.1 |  |  |  |  |  |  |  | 
14 | CNC(=O)Cc1ccc(N2C(=S)N(c3cnc(C#N)c(C)c3)C(=O)C23CCC3)cc1 [Cpd 8, 2-{4-[7-(6-cyano-5-methyl(3-pyridyl))-8-oxo-6-thioxo-5,7-diazaspiro[3.4]oct-5-yl]phenyl}-N-methylacetamide] |  | 1150 |  | > 15.1 |  | 1170 |  | > 15.1 | 96 | 0.4 | 86.6 | -0.1 |  |  |  | 
15 | CN1CCC(n2ccc3cc(N4C(=S)N(c5cnc(C#N)c(C(F)(F)F)c5)C(=O)C45CCC5)ccc32)CC1 [Cpd 251, 5-[8-[1-(1-methyl-4-piperidyl)indol-5-yl]-5-oxo-7-thioxo-6,8-diazaspiro[3.4]octan-6-yl]-3-(trifluoromethyl)pyridine-2-carbonitrile] | 101 | 174 | -0.1 | > 15.1 | 0 | 288 | 0.1 | > 15.1 |  |  |  |  |  |  |  | 
16 | CN1CC[C@@H](CNC(=O)c2ccc(N3C(=S)N(c4cnc(C#N)c(C(F)(F)F)c4)C(=O)C34CCC4)cc2)C1 [Cpd 187, 4-[6-[6-cyano-5-(trifluoromethyl)-3-pyridyl]-5-oxo-7-thioxo-6,8-diazaspiro[3.4]octan-8-yl]-N-[[(3S)-1-methylpyrrolidin-3-yl]methyl]benzamide] | 101 | 513 | 0.3 | > 15.1 | 101 | 1260 | 0.2 | > 15.1 |  |  |  |  |  |  |  | 
